Reference: patent US5814612A, “Retinol derivatives and uses thereof” (priority 1992, dated 1998)
Each block holds one compound with its values, some of them ahead of it.

Assays:
[1] = test system: B lymphocytes; conditions: cited from earlier work
[2] = Chemical stability of P3; assay type: physicochemical
[3] = test system: 5/2 cells; assay type: in vitro ADME, human
Experimental: 5/2 cells (10^6 cells in 10 ml HB 101 medium) were incubated with all-trans-[^3 H] retinol (10 uCe/ml). After 24 hours, retinoids were extracted from the washed cell pellet and unlabeled marker retinoids were added. The crude extract was loaded on an analytical reversed-phase C-18 column. Retinoids were eluted with the shown linear gradient of water/methanol/chloroform. The flow rate was 0.5 ml/min. DPM were determined with an on line scintillation counter. Reference retinoids were the all-trans forms of 0: 3,4-didehydroretinoic acid, 1: all-trans-retinoic acid, 2: 3,4-didehydroretinol, 3: retinol, 4: retinyl linoleate, 5: retinyl oleate, 6: retinyl palmitate. Shaded area corresponds to P3. Cross-hatched area corresponds to P1.
Lymphoblastoid 5/2 cells grown in the presence of 10^-6 M retinol were spiked with ^3 H-labeled retinol. After 16 hours the cell pellet was delipidated according to the method of McLean et al. and separated on a reversed phase C-18 HPLC column (FIG. 7). […] Three peaks, P1, P2 and P3, could not be immediately identified. One peak eluting at 36-39 minutes (corresponding 83% methanol 7% water) provisionally called P3, but now known as 14HRR, was unusual because unlike P1 eluting at 31-34 minutes, its relative amount increased when the retinol concentration was lowered or when retinol was given to the cells bound to RBP. […] Since HeLa cells contain 14HRR, these cells were also used. 50 ml of packed HeLa cells (10^10 cells) yielded 25 OD348nmunits of pure P3 after the following sequence of steps: 1. Growth in the presence of 10^-5 M retinol; 2. Extraction of cell pellet according to McClean et al. (13); 3. Preparative C-18 HPLC column eluted with a water/methanol gradient; 4. semipreparative C18 HPLC column eluted with a water/acetonitrile gradient; 5. analytical C4 column eluted with a water/methanol gradient.

[4] = test system: SK--N--SH; assay: Retinol metabolism, SK--N--SH; assay type: in vitro ADME, human
Experimental: (§1) Legend: 2.5×10^6 cells were grown overnight in 5 ml RPMI/10% FBS. The FBS was preincubated at room temperature with 14.4 uCi [^3 H] retinol (NEN) for 4h. The cell pellet was washed twice with PBS. The retinoid were extracted according to MClean et al. 90 and separated on an analytical c18 reverse phase column according to FIG. 7. The DPM were determined using an on-line scintillation counter.

[5] = test system: N-tera2; assay: Retinol metabolism, N-tera2; assay type: in vitro ADME, human
Experimental: as §1

[6] = test system: Ket; assay: Retinol metabolism, Ket; assay type: in vitro ADME, human
Experimental: as §1

[7] = test system: SLA; assay: Retinol metabolism, SLA; assay type: in vitro ADME, mouse
Experimental: as §1

[8] = test system: thymocytes; assay: Proliferation of Con A stimulated thymocytes in serum-free ITLB medium; assay type: cell-based, BALB/c mouse; conditions: 3×10^-6 M retinol, Con A 0.5 μg/ml
Experimental: Purified thymocytes (5×10^5 cells/well) were stimulated by TCR crosslinking with immobilized anti-CD3e antibody (FIG. 15A) or 0.4 μg/ml Con A (FIG. 15B) in serum-free ITLB medium. The indicated amounts of retinoids were added either once at the beginning of the experiment (marked as "1×") or every 12 hours thereafter (marked as "6×"). DNA synthesis was measured after 72 hours by tritiated thymidine uptake as described.
Thymuses of 3 to 6-week-old BALB/c mice were teased in serum-free RPMI medium supplemented with 1% BSA, 10^-6 M linoleic acid and antibiotics. […] Cell viability was evaluated by trypan blue dye exclusion. To determine the extent of depletion of accessory cells, samples were stained with FITC-conjugated anti-Fc receptor antibody and analyzed by flow cytometry on a FACScan instrument (Becton Dickinson). No FcR-bearing cells were detected by this procedure.
Cells were cultured in serum-free medium, referred to as ITLB, containing RPMI 1640 supplemented with 8×10^-7 M insulin (5 μg/ml), 7×10^-8 M transferrin (5 μg/ml), 2×10^-6 M linoleic acid, 2×10^-6 M delipidated BSA (0.12 mg/ml), 2 mM L-glutamine, 1 mM sodium pyruvate and antibiotics. […] The optimal concentration for stimulation of T cells was determined for each batch of anti-CD3 mAb and Con A. The optimal range of Con A was particularly narrow in serum-free medium (0.5-0.2 μg/ml) and varied with the cell density used. […]

Compound: CC(C=CC=C(C)C(O)CO)=CC=C1C(C)=CCCC1(C)C (stereo not shown) [14HRR, 14-hydroxy-4,14-retro-retinol]
difference in active concentration, 14HRR vs retinal [1]: 40 fold | support of B cell proliferation / response [1]: capable of supporting the proliferation of B cells in the absence of an external supply of retinal | active concentration ([1]; previous analyses with B lymphocytes (ref. 33)): 50 nM | chemical stability [2]: unstable in chloroform and does not survive an acid extraction step

Compound: CC1=C(/C=C/C(C)=C/C=C/C(C)=C/C(=O)O)C(C)(C)CCC1 [all-trans retinoic acid]
detection as metabolite of retinol [3]: not detectable

Ester (% of taken up retinol) [4]: 25% | P3 (% of taken up retinol) [4]: 0.9% | Retinol (% of taken up retinol) [4]: 56% | Total cts. [4]: 2.0 × 10^5 cts. | Ester (% of taken up retinol) [5]: 97% | P3 (% of taken up retinol) [5]: 0.4% | Total cts. [5]: 13.5 × 10^5 cts. | Ester (% of taken up retinol) [6]: 41% | P3 (% of taken up retinol) [6]: 3% | Total cts. [6]: 4.6 × 10^5 cts. | Ester (% of taken up retinol) [7]: 9% | P3 (% of taken up retinol) [7]: 3% | Total cts. [7]: 6.1 × 10^5 cts.
Compound: CC1=C(/C=C/C(C)=C/C=C/C(C)=C/CO)C(C)(C)CCC1 [retinol, all-trans retinol]
Con A stimulated thymocyte proliferation [8]: growing exponentially
